Reference: publication PMC10455244, “Alpha-Mangostin: A Potent Inhibitor of TRPV3 and Pro-Inflammatory Cytokine Secretion in Keratinocytes” (International Journal of Molecular Sciences, 2023)

Target: T1, TRPV3 (G573S) (Homo sapiens, UniProt Q8NET8, G573S)
T1 construct: host or cells: HEK 293T (transient transfection, pEGFP-N1 co-transfected as a marker)
T1 sequence (Q8NET8 1-790 G573S): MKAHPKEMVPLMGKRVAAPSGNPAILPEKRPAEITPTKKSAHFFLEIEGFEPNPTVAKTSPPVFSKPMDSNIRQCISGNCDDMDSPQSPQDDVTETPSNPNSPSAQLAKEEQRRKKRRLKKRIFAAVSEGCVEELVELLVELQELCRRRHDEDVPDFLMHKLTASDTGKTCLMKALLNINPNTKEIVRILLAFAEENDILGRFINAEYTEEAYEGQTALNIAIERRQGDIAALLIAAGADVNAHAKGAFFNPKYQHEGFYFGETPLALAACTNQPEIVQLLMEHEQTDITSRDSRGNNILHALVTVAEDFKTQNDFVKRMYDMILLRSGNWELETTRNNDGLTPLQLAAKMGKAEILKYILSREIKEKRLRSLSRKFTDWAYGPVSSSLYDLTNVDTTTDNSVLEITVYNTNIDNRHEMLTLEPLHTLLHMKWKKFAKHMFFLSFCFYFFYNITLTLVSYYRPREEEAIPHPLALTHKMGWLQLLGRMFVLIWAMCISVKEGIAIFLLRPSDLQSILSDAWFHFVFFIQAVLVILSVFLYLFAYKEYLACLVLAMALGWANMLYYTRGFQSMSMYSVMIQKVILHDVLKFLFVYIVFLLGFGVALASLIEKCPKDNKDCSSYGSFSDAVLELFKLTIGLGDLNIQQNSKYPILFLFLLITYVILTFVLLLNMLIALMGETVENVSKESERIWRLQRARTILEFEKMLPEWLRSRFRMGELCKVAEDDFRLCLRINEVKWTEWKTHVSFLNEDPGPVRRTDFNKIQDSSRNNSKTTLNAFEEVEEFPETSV
Experiment: Fura-2 calcium imaging, spontaneous Ca2+ increase in TRPV3 (G573S)-expressing HEK 293T cells
Format: cell-based
Settings: 1 µM
Description: Figure 4 Alpha-mangostin inhibited the activity of hyperactive TRPV3 mutant channels and rescued mutation-induced cell death. (A) Alpha-mangostin inhibited the channel current in representative TRPV3 (G573S)- and TRPV3 (G573C)-expressing HEK 293T cells. […] Currents were normalized to the response at −100 mV before adding alpha-mangostin. (C) Alpha-mangostin inhibited TRPV3-mediated intracellular calcium increase in TRPV3 (G573S)-expressing HEK 293T cells. […] The bar graph on the right summarizes the change in the intracellular calcium rise inhibited by alpha-mangostin. […]
Subsequently, the effects of alpha-mangostin on the activities of the mutated channels were further evaluated using intracellular calcium measurements.
Fura-2 AM (Thermo Fisher Scientific) was utilized as a fluorescent indicator to measure calcium signal, as described previously. […] To measure the cytosolic Ca^2+ level, a sequential excitation of Fura-2 is performed at 340 nm and 380 nm; then, the emission signals resulting from each excitation wavelength are measured and the ratio of these signals is calculated. […] Samples were excited using a wavelength of 380 nm for 20 ms, followed by 340 nm for 100 ms, and fluorescence at 510 nm was recorded. Recorded data were then analyzed using NIS-Element AR Version 5.00.00 (Nikon Instruments, Melville, NY, USA). […]

SMILES: COc1c(O)cc2oc3cc(O)c(CC=C(C)C)c(O)c3c(=O)c2c1CC=C(C)C [Alpha-mangostin]
- Effect on spontaneous intracellular calcium increase: potently attenuated
